The values that follow come from US7989464B2, “mGluR1 antagonists as therapeutic agents” (Schering Corporation, priority 2004, dated 2011).

The target in this test is T1, hmGluR1 receptor (Homo sapiens, UniProt Q13255).
T1 construct: expressed in transfected cells
The test is described as follows: IC50 determination: intracellular calcium mobilization (FLIPR) upon Quisqualate stimulation in CHO cells stably expressing hmGluR1. The test is classed as cell-based. As to conditions: against Quisqualate 1 μM (EC80). On the procedure:
A CHO cell line stably expressing hmGluR1 receptor was established. One day prior to assay, cells were split in growth media at concentration of 50,000 cells/well in a volume of 100 μl and seeded into black clear-bottom 96-well plates. After two to six hours, when cells were well attached to the plate, growth medium was replaced with assay medium (100 μL) consisting of DMEM high glucose, supplemented with GPT (1 U/mL) and Sodium pyruvate, 1 mM. Following overnight incubation, medium was discarded and cells were loaded for 2 h with dye from the Calcium 3 Assay Reagent Kit (Molecular Devices, # R8033), prepared according to manufacturers' instructions. […] Test compounds were added 10 minutes before Quisqualate.

[1] abbreviates: class symbols, read-out: mGIuR 1 IC50.
[2] abbreviates: FLIPR calcium mobilization, read-out: IC50 Class.

Read-outs that look alike come from different tables or passages of the source.

T1 sequence (Q13255 19-1194): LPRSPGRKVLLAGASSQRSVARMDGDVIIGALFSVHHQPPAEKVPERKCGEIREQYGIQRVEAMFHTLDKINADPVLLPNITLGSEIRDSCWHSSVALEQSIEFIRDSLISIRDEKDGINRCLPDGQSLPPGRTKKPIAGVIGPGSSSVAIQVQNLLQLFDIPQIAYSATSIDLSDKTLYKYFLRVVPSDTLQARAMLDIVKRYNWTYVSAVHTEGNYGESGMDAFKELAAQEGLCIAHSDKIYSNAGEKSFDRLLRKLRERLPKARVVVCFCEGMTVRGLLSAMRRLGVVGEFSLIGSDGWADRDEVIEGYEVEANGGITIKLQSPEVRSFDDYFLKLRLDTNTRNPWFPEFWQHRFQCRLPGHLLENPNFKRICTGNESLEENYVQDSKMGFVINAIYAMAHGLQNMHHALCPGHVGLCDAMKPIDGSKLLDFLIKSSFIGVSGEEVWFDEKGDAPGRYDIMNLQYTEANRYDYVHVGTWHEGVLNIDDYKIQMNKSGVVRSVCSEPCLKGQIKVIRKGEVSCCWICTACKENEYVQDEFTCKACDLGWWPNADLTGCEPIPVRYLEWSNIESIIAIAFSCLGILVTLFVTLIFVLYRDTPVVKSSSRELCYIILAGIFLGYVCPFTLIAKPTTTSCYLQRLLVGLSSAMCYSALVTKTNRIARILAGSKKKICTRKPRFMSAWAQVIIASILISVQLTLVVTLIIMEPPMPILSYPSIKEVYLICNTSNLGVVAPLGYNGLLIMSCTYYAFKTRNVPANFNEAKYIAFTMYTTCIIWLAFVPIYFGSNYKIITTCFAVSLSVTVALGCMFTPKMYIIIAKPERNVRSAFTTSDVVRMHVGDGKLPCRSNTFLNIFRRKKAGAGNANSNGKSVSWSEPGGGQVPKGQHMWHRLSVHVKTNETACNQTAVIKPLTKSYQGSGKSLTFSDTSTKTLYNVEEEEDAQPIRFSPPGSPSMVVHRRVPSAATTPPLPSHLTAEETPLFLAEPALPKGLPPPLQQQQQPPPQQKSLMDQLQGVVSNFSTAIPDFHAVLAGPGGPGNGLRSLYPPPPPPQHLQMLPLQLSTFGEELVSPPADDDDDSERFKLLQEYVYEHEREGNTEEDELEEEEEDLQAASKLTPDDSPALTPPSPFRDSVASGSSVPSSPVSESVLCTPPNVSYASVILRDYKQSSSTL

In general, IC50 refers to the concentration needed to halve the response being measured. For the compound `CNc1ccnc2sc3c(=O)n(-c4ccc(OC)cc4)cnc3c12` [28I], the IC50 under setting [1] is less than 50 nM.

Regarding `C=C(C)CNc1ncnc2sc3c(=O)n(-c4ccc5scnc5c4)cnc3c12` [95FC], the IC50 under setting [2] is less than 50 nM.

Take `COCCn1cnc2c(sc3ncnc(N(C)C)c32)c1=O` [95EA]: the 50% inhibitory concentration (IC50) under setting [2] was more than 1000 nM.

Turning to `C#CCOc1ccnc2sc3c(=O)n(-c4ccc(C)cc4)cnc3c12` [66A], under setting [1], the IC50 is less than 50 nM.

`CNc1c([N+](=O)[O-])cnc2sc3c(=O)n(C4CCCCC4)cnc3c12` [compound 52]: the IC50 under setting [1] lay in the range of 150 to 1000 nM.

For the compound `O=C(Nc1ccnc2sc3c(=O)n(C4CCCCC4)cnc3c12)c1ccc(Cl)cc1` [73G], the IC50 under setting [1] was more than 1000 nM.

Take `CC(C)(C)Nc1ccnc2sc3c(=O)n(-c4ccc(Cl)cc4)cnc3c12` [28EP]: the IC50 under setting [2] was 150 to 1000 nM.

As to `COc1ccc(-n2cnc3c(sc4nc(C)cc(C)c43)c2=O)cc1` [P-15], the IC50 under setting [1] is 150 to 1000 nM.

For the compound `COc1ccc(-n2cnc3c(sc4ncc(Br)c(N)c43)c2=O)cc1` [173B], the IC50 under setting [2] was less than 50 nM.

With `Cc1ccc(-n2cnc3c(sc4nc(S)nc(N)c43)c2=O)cc1` [71F], the IC50 under setting [2] was less than 50 nM.

As for `COc1ccc(-n2cnc3c(sc4nccc(N)c43)c2=O)cc1` [72C], under setting [1], the IC50 is less than 50 nM.

`CN(C)c1cccc2sc3c(=O)n(-c4ccc(Cl)cc4)cnc3c12` [103A]: under setting [1], the IC50 fell in the range of 50 to 150 nM.

For `Cc1ccc(-n2cnc3c(sc4nccc(N(C)C)c43)c2=O)cn1` [7DF], the half-inhibitory concentration (IC50) under setting [1] was less than 50 nM.

Regarding `CN(C)c1cc(N2CCCC2)nc2sc3c(=O)n(C4CCCCC4)cnc3c12` [compound 85], the IC50 under setting [1] is more than 1000 nM.

`CC(=O)Nc1ccnc2sc3c(=O)n(C4CCCCC4)cnc3c12` [73B]: the IC50 under setting [1] was more than 1000 nM.

Regarding `C#CCNc1ncnc2sc3c(=O)n(-c4ccc5scnc5c4)cnc3c12` [95EL], under setting [2], the IC50 was less than 50 nM.

Turning to `O=c1c2sc3nccc(N4CCN(CC5CC5)CC4)c3c2ncn1C1CCCCC1` [61B], the IC50 under setting [1] is more than 1000 nM.

In the case of `Cc1ccc(-n2cnc3c(sc4nccc(N5CCOCC5)c43)c2=O)cc1` [28CW], the IC50 under setting [2] was more than 1000 nM.

With `C#CCNc1ccnc2sc3c(=O)n(C4CCCCC4)cnc3c12` [72G], the IC50 under setting [1] was less than 50 nM.

`COc1ccc(-n2cnc3c(sc4nccc(Nc5ccccn5)c43)c2=O)cc1` [28FO]: the IC50 under setting [2] is 150 to 1000 nM.

`COc1cccc2sc3c(=O)n(-c4ccc(Cl)cc4)cnc3c12` [103S]: the IC50 under setting [2] was 150 to 1000 nM.

For `CC(=O)Nc1cccc(-n2cnc3c(sc4nccc(N(C)C)c43)c2=O)c1` [7CI], the IC50 under setting [1] fell in the range of 150 to 1000 nM.

In the case of `CN(C)c1ccnc2sc3c(=O)n(-c4ccc5ncsc5c4)cnc3c12` [7AS], the IC50 under setting [1] was less than 50 nM.

With `COc1ccc(-n2cnc3c(sc4ncnc(Nc5ccccn5)c43)c2=O)cc1` [190K], under setting [2], the IC50 lay in the range of 150 to 1000 nM.

`COCCCNc1ccnc2sc3c(=O)n(-c4ccc(F)cc4)cnc3c12` [28GS]: under setting [2], the IC50 was less than 50 nM.

For `COc1ccc(-n2cnc3c(sc4nc(Cl)cc(OC)c43)c2=O)cc1` [57B], the IC50 under setting [2] is more than 1000 nM.

Consider `O=c1c2sc3nccc(NCCCCO)c3c2ncn1-c1ccc(Cl)cc1` [28GE], for which the IC50 reads like this: under setting [2], less than 50 nM; (FLIPR calcium mobilization, read-out: mGluR1 IC50) 0.28 nM.

As for `CC1CCCC(C)N1n1cnc2c(sc3nccc(N(C)C)c32)c1=O` (centres unmarked) [60F], the IC50 under setting [1] lay in the range of 50 to 150 nM.

Take `CN(C)c1ccnc2sc3c(=O)n(C4CCCCCCC4)cnc3c12` [15Q]: the IC50 under setting [1] was less than 50 nM.

Regarding `O=c1c2sc3nccc(N4CCCCC4)c3c2ncn1C1CCCCC1` [28L], the IC50 under setting [1] is more than 1000 nM.

As to `CN(C)c1ccnc2sc3c(=O)n(-c4ccc(O)cc4)cnc3c12` [7AK], the IC50 under setting [1] was less than 50 nM.

Consider `COc1ccc(Nc2ncnc3sc4c(=O)n(-c5ccccc5)cnc4c23)cc1` [95GI], for which, under setting [2], the IC50 was 150 to 1000 nM.

For `CNc1cc(O)nc2sc3c(=O)n(-c4ccc(C)cc4)cnc3c12` [172B], the IC50 under setting [2] is less than 50 nM.

For the compound `CN(C)c1ccnc2sc3c(=O)n(-c4ccc5[nH]nnc5c4)cnc3c12` [7AO], the IC50 under setting [1] was in the range of 150 to 1000 nM.

For `O=c1c2sc3ncccc3c2ncn1-c1ccc(Cl)cc1` [183B], the IC50 under setting [2] was in the range of 150 to 1000 nM.

Turning to `CCNc1ccnc2sc3c(=O)n(C4CCCCC4)cnc3c12` [28P], under setting [1], the IC50 was less than 50 nM.

As for `COc1ccnc2sc3c(=O)n(-c4ccc(Cl)cc4)cnc3c12` [28FS], the IC50 under setting [2] was less than 50 nM.

`O=c1c2sc3nccc(NC4CC4)c3c2ncn1-c1ccc(OS(=O)(=O)C(F)(F)F)cc1` [28HT]: under setting [2], the IC50 was more than 1000 nM.

Regarding `CN(C)c1cccc2sc3c(=O)n(-c4cc(Cl)cc(Cl)c4)cnc3c12` [103K], under setting [2], the IC50 was more than 1000 nM.

Consider `COc1ccc(-n2cnc3c(sc4nccc(N(C)CC(O)CO)c43)c2=O)cc1` (centres unmarked) [28HV], for which, under setting [2], the IC50 was less than 50 nM.

Regarding `CC#Cc1ccnc2sc3c(=O)n(-c4ccc(Cl)cc4)cnc3c12` [compound 177], the IC50 under setting [2] was more than 1000 nM.

In the case of `C=C(Cl)CNc1ccnc2sc3c(=O)n(-c4ccc(C)cc4)cnc3c12` [28EY], the IC50 under setting [2] is less than 50 nM.

With `Cc1ccc(-n2cnc3c(sc4nccc(NC(C)(C)CO)c43)c2=O)cc1` [28EX], under setting [2], the IC50 fell in the range of 50 to 150 nM.

Consider `CN(C)c1ccnc2sc3c(=O)n(-c4ccncc4)cnc3c12` [28EE], for which the IC50 under setting [2] fell in the range of 150 to 1000 nM.

For `Cc1cc(N(C)C)c2c(n1)sc1c(=O)n(-c3ccc4ncsc4c3)cnc12` [7CO], the IC50 under setting [1] was 50 to 150 nM.

For the compound `CCNc1c(C#N)cnc2sc3c(=O)n(C4CCCCC4)cnc3c12` [compound 50], the IC50 under setting [1] lay in the range of 150 to 1000 nM.

As to `COc1ccc(-n2c(C)nc3c(sc4nccc(N(C)C)c43)c2=O)cc1` [116D], under setting [1], the IC50 is less than 50 nM.

With `O=c1c2sc3nccc(NC4CC4)c3c2ncn1-c1ccc(Cl)cc1` [28HF], the IC50 under setting [2] was less than 50 nM.

With `CCNc1ncnc2sc3c(=O)n(-c4ccc(SC)cc4)cnc3c12` [95AD], the IC50 under setting [1] was less than 50 nM.

As for `CNc1ccnc2sc3c(=O)n(-c4ccccc4)c(C)nc3c12` [113E], under setting [1], the IC50 is less than 50 nM.

As to `CN(C)c1cncc2sc3c(=O)n(-c4ccccc4)cnc3c12` [37D], the IC50 under setting [1] lay in the range of 150 to 1000 nM.

On to `CN(C)c1ncnc2sc3c(=O)n(-c4ccc(OC(F)F)cc4)cnc3c12` [95Q], for which the IC50 under setting [1] was less than 50 nM.

For `Cc1ccc(-n2cnc3c(sc4nccc(N(C)C)c43)c2=O)cc1C` [7CV], the IC50 under setting [1] is less than 50 nM.

For the compound `CN(CCO)c1ccnc2sc3c(=O)n(-c4ccc(Cl)cc4)cnc3c12` [28HG], the concentration for half-maximal inhibition (IC50) under setting [2] was less than 50 nM.

As to `COc1ccc(-n2cnc3c(sc4nccc(NC5CC5)c43)c2=O)c(C)c1` [131I], the IC50 under setting [2] lay within 50 to 150 nM.

In the case of `Cc1ccc(-n2cnc3c(sc4nccc(N(C)C)c43)c2=O)cc1C#N` [7DP], under setting [1], the IC50 lay within 50 to 150 nM.

On to `CN(C)c1ncnc2sc3c(=O)n(-c4ccc(Br)cc4F)cnc3c12` [95AR], for which the IC50 under setting [2] is less than 50 nM.

For `CC(O)CCNc1ccnc2sc3c(=O)n(-c4ccc(F)cc4)cnc3c12` (centres unmarked) [28HN], the IC50 under setting [2] is less than 50 nM.

Take `Cc1ccc(Nn2cnc3c(sc4nccc(N(C)C)c43)c2=O)cc1` [60C]: the IC50 under setting [1] is less than 50 nM.

For `CN(C)c1ccnc2sc3c(=O)n(-c4ccc(O)c(F)c4)cnc3c12` [7CT], the IC50 under setting [1] was less than 50 nM.

On to `O=c1c2sc3ncc(Br)c(NC4CC4)c3c2ncn1-c1ccc(Cl)cc1` [28EI], for which the IC50 under setting [2] was in the range of 150 to 1000 nM.

On to `COc1ccc(-n2cnc3c(sc4nccc(Nc5ccccc5)c43)c2=O)cc1` [28G], for which, under setting [1], the IC50 was 150 to 1000 nM.

As to `CN(C)c1ccnc2sc3c(=O)n(-c4cccc(Cl)c4)cnc3c12` [7L], the IC50 under setting [1] is less than 50 nM.

As to `COc1ccc2nc(-n3cnc4c(sc5nccc(N(C)C)c54)c3=O)sc2c1` [7BP], the IC50 under setting [1] was more than 1000 nM.
